≈ marks a conversion by molar mass, not a printed value. Like-named read-outs stand apart in the source and are kept apart here.
Tests used:
Solubility in PBS = format: physicochemical
Method in brief: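 Solubility is derived from HPLC peak areas: the ratio of the PBS supernatant peak to a 50 μM DMSO peptide peak, times 50 uM.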

[1] = biological target: T1, full-length beta-Catenin (Uniprot ID P35222) (Homo sapiens, UniProt P35222); test: Fluorescence polarization IC50 (beta-catenin / 5FAM-TCF4 10-53 competition); format: binding
T1 construct: 10 nM full-length beta-Catenin (Uniprot ID P35222)
T1 sequence (P35222 1-781): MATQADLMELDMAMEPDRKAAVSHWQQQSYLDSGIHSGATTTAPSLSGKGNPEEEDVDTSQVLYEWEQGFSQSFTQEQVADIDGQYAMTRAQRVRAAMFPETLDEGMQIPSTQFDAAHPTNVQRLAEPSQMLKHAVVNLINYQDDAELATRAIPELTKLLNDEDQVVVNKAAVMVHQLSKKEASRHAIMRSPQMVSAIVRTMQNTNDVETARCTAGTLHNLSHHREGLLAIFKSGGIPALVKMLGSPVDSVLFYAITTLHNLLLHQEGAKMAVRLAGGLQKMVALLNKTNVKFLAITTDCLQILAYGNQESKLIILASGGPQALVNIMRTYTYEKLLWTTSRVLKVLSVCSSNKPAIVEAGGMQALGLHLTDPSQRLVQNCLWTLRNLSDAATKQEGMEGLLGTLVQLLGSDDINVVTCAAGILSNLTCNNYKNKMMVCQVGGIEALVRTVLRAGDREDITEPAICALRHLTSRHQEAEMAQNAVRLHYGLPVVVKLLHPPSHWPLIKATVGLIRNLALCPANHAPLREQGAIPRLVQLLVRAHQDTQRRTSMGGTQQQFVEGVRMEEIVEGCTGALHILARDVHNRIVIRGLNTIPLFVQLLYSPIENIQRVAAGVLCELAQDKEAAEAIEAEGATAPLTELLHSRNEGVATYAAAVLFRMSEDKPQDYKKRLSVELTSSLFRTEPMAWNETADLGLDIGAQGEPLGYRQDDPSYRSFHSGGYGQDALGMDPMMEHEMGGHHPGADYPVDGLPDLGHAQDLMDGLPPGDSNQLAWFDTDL

[2] = biological target: T2, beta-catenin/TCF4 engagement (Homo sapiens, UniProt P35222); test: Nano-BRET target engagement assay (B-cat-Halo & TCF4-Luc in HEK293 cells); format: cell-based
T2 construct: expressed in transfected cells; host or cells: HEK293
T2 sequence (P35222 1-781): T1 sequence (P35222 1-781)

CHI Log D procedure = format: physicochemical; conditions: for chromatographic logD: pH 7.4, CHI Log D
[3] = absolute IC50, read-out: NanoBRET Abs IC50
[4] = fluorescence polarization, read-out: beta-Catenin FP IC50

CC(=O)N1CCC[C@]12CC=CCCCC1(CCCC=CCCCOC(=O)N3CC[C@@](C(=O)N[C@@H](Cc4ccsc4)C(=O)N[C@@H](Cc4c[nH]c5ccccc45)C(=O)N[C@@H](Cc4c[nH]cn4)C(N)=O)(C3)NC(=O)[C@H](CC(N)=O)NC(=O)[C@H](Cc3ccccc3)NC(=O)[C@H](C)NC(=O)[C@H](C)NC(=O)[C@H](CC(=O)O)NC(=O)[C@H](CC(=O)O)NC1=O)NC(=O)[C@H](CC(C)(C)C)NC(=O)[C@H](CC(=O)O)NC2=O (stereo partly drawn) [I-792, Ac-PL3-Asp-Npg-B5-Asp-Asp-Ala-Ala-Phe-Asn-PyrS2-3Thi-Trp-His-NH2]
Solubility (Solubility in PBS; Solubility (uM)): 33 µM (≈ 63 µg/mL)
IC50 ([1]; read-out: beta-Catenin FP IC50): 0.02 µM
IC50 ([2]; read-out: NanoBRET Abs IC50): > 20 µM
chromatographic logD (CHI Log D procedure): 1.96

CC(=O)N1CCC[C@]12CC=CCCCC1(CCCC=CCCCOC(=O)N3CC[C@@](C(=O)N[C@@H](Cc4ccccc4Cl)C(=O)N[C@@H](Cc4csc5ccccc45)C(=O)N[C@@H](CO)C(N)=O)(C3)NC(=O)[C@H](CC(N)=O)NC(=O)[C@H](Cc3ccccc3)NC(=O)[C@H](C)NC(=O)[C@H](C)NC(=O)[C@H](CC(=O)O)NC(=O)[C@H](CC(=O)O)NC1=O)NC(=O)[C@H](CC1CCCCC1)NC(=O)[C@H](CC(=O)O)NC2=O (stereo partly drawn) [I-1046, Ac-PL3-Asp-Cha-B5-Asp-Asp-Ala-Ala-Phe-Asn-PyrS2-2C1F-BztA-Ser-NH2]
Solubility (Solubility in PBS; Solubility (uM)): 37 µM (≈ 71.5 µg/mL)
IC50 ([1]; read-out: beta-Catenin FP IC50): 0.005 µM
IC50 [2, 3]: 20.5 µM
chromatographic logD (CHI Log D procedure): 2.4

CC(=O)N1CCC[C@]12CC=CCCCC1(CCCC=CCCCOC(=O)N3CC[C@@](C(=O)N[C@@H](Cc4ccccc4Cl)C(=O)N[C@@H](Cc4csc5ccccc45)C(=O)N[C@@H](CCC(N)=O)C(=O)NCCCCCCN)(C3)NC(=O)[C@H]([C@@H](C)O)NC(=O)[C@H](Cc3ccccc3)NC(=O)[C@H](C)NC(=O)[C@H](C)NC(=O)[C@H](CN(CC(=O)O)CC(F)(F)F)NC(=O)[C@H](CC(=O)O)NC1=O)NC(=O)[C@H](CC(C)(C)C)NC(=O)[C@H](CC(=O)O)NC2=O (stereo partly drawn) [I-1061, Ac-PL3-Asp-Npg-B5-Asp-TfeGA-Ala-Ala-Phe-Thr-PyrS2-2C1F-BztA-Gln-6AmHex]
Solubility (Solubility in PBS): 10 µM (≈ 21.4 µg/mL)
IC50 ([1]; read-out: beta-Catenin FP IC50): 0.006 µM
IC50 [2, 3]: 10.3 µM
chromatographic logD (CHI Log D procedure): 2.56

CC(=O)N1CCC[C@]12CC=CCCCC1(CCCC=CCCCOC(=O)N3CC[C@@](C(=O)N[C@@H](Cc4ccsc4)C(=O)N[C@@H](Cc4csc5ccccc45)C(=O)N[C@@H](CCC(N)=O)C(N)=O)(C3)NC(=O)[C@H](CC(N)=O)NC(=O)[C@H](Cc3ccccc3)NC(=O)[C@H](C)NC(=O)[C@H](C)NC(=O)[C@H]([C@@H](C)O)NC(=O)[C@H](CC(=O)O)NC1=O)NC(=O)[C@H](CC(C)(C)C)NC(=O)[C@H](CC(=O)O)NC2=O (stereo partly drawn) [I-844, Ac-PL3-Asp-Npg-B5-Asp-Thr-Ala-Ala-Phe-Asn-PyrS2-3Thi-BztA-Gln-NH2]
Solubility (Solubility in PBS; Solubility (uM)): 35 µM (≈ 66.6 µg/mL)
IC50 ([1]; read-out: beta-Catenin FP IC50): 0.006 µM
IC50 ([2]; read-out: NanoBRET IC50): 10.7 µM
chromatographic logD (CHI Log D procedure): 2.31

CC(=O)N1CCC[C@]12CC=CCCCC1(CCCC=CCCCOC(=O)N3CC[C@@](C(=O)N[C@@H](Cc4ccccc4)C(=O)N[C@@H](Cc4csc5ccccc45)C(=O)N[C@@H](CCC(N)=O)C(N)=O)(C3)NC(=O)[C@H](CC(N)=O)NC(=O)[C@H](Cc3ccccc3)NC(=O)[C@H](C)NC(=O)[C@H](C)NC(=O)[C@H](CCC(=O)O)NC(=O)[C@H](CC(=O)O)NC1=O)NC(=O)[C@H](CC(C)(C)C)NC(=O)[C@H](CC(=O)O)NC2=O (stereo partly drawn) [I-685, Ac-PL3-Asp-Npg-B5-Asp-Glu-Ala-Ala-Phe-Asn-PyrS2-Phe-BztA-Gln-NH2]
Solubility (Solubility in PBS): 44 µM (≈ 84.8 µg/mL)
IC50 [1, 4]: 0.025 µM
IC50 ([1]; read-out: FP EC50): 0.025 µM
IC50 [2, 3]: 19.4 µM
CHI Log D (CHI Log D procedure; pH 7.4): 2.1

CC[C@H](C)[C@@H]1NC(=O)[C@H](CC(=O)O)NC(=O)[C@]2(CC=CCCCC3(CCCC=CCCCCCC[C@@](C)(C(=O)N[C@@H](Cc4ccccc4)C(=O)N[C@@H](Cc4csc5ccccc45)C(=O)N[C@@H](CCC(N)=O)C(N)=O)NC(=O)[C@H](CC(N)=O)NC(=O)[C@H](Cc4ccccc4)NC(=O)[C@H](C)NC(=O)[C@H](C)NC(=O)[C@H](CCC(=O)O)NC(=O)[C@H](CC(=O)O)NC3=O)NC1=O)CCCN2C(C)=O (stereo partly drawn) [I-557, Ac-PL3-Asp-Ile-B5-Asp-Glu-Ala-Ala-Phe-Asn-S8-Phe-BztA-Gln-NH2]
Solubility (Solubility in PBS; Solubility (uM)): 47 µM (≈ 87.9 µg/mL)
IC50 [1, 4]: 0.035 µM
IC50 [2, 3]: 16.9 µM
chromatographic logD (CHI Log D procedure): 2.39

— US20240116985A1, “STAPLED PEPTIDES AND METHODS THEREOF” (priority 2020, published 2024)
